Key:
[1] = biological target: T1, Bromodomain-containing protein 4 [348-457] (Human, UniProt O60885); test: Biological Activity Primary Activity Assay
T1 construct: 348-457
Procedure: (§1) 90 μL per well of cell suspension without tracer was also dispensed into at least 3 wells as “No tracer control samples” for background correction. Serially diluted test compounds were prepared at 1000× concentration in DMSO and further diluted to 10× concentration in Opti-MEM. […] Plates were then incubated at 37° C. +5% 002 incubator for 2 hours.

[2] = biological target: Bromodomain-containing protein 4 [58-164] (Homo sapiens, UniProt O60885); test: Biological Activity Primary Activity Assay
Procedure: as §1

IC50 [1]	IC50 [2]	Compound
in the range around 0.6 µM	> 10 µM	CNC(=O)c1c(OC(C)c2ccc3c(c2)COC3)cc(C(N)=O)n1C (centres undefined) [US20250263370, Example 15]
in the range around 5.5 µM	> 10 µM	CCNC(=O)c1[nH]c(C(=O)NC)c([C@H](C)c2ccccc2F)c1C [US20250263370, Example 74]

Source: BindingDB's records for patent US20250263370 (Tay Therapeutics, 2025)
